Experimental data from US20050005311A1, “High throughput screening for cancer genes” (priority 2003, published 2005).

Test system: l(2)gl primary tumor
Assay type: in vivo, Drosophila melanogaster
Method: Adult hosts injected with l(2)gl/l(2)gl larval tissue were orally administered drugs for 21 days after injection. Hosts were treated with 0 or 0.56 μg/ml of LY294002 (reduction of tumor size to 7% of untreated) and 0 or […] PD98059 (no effect).
Brain lobes from armadillo-lacZ marked larvae; were dissected and cut into halves. Each fragment was injected into the abdomen of a βgal^ml (a mutant that lacks endogenous […] expression) adult female using a 33 gauge needle, where it was cultured for 21 days at room temperature. Hosts that had received transplants were opened along the ventral midline and fixed in 3.7% formaldehyde in phosphate buffered saline (PBS). β-galactosidase in the donor tissue was detected by staining overnight at 37° C. in 0.02% X-gal in 10 mM Na pyrophosphate, 0.15 M NaCl, […], 5 mM ferricyanide, and 5 mM K ferrocyanide (Specialty Media). Secondary tumors were defined as β-galactosidase-marked cells distinct from the :implanted tumor, which was defined as the primary tumor.
The levels of Mothers against dpp (Mad), P13K, ERK, Akt, and cleaved caspase 3 were studied in brain extracts from l(2)gl/l(2)gl, l(2)gl/l(2)gl; sema-5c/sema-5c, and wild-type larvae. P13K was reduced in l(2)gl/l(2)gl;sema-5c/sema-5c compared to l(2)gl/l(2)gl. To further study the role of P13K in l(2)gl tumors, the P13K inhibitor, LY294002, was orally administered to Drosophila adults injected with l(2)gl/l(2)gl tissue.
Adult βgal^nl hosts transplanted with armadillo-lacZ marked l(2)gl brain fragments were treated with 0; 0.556; 5.56; and 55.6 μg/ml of the PI-3 K inhibitor, LY294002 (Sigma), by adding drug to fly media. Flies were cultured for 21 days on drug-containing food and stained for the presence of β-galactosidase. Primary tumor size was determined by counting the cells dissociated from tumors. See, e.g., FIG. 5.

Compound | primary tumor size (% of untreated) (adult hosts injected with l(2)gl/l(2)gl larval tissue, oral, 0.56 μg/ml, 21 days after injection (FIG. 5)) | adverse effects to the hosts (in vivo, po) | primary tumor size (orally administered to Drosophila adults injected with l(2)gl/l(2)gl tissue, dose not given) | effect on l(2)gl primary tumor growth (adult hosts injected with l(2)gl/l(2)gl larval tissue, oral, 0.56 μ/ml, 21 days after injection (FIG. 5))
O=c1cc(N2CCOCC2)oc2c(-c3ccccc3)cccc12 [LY294002] | 7 % of untreated | without adverse effects | 7 % of untreated hosts | –
COc1cccc(-c2cc(=O)c3ccccc3o2)c1N [PD98059] | – | – | – | no effect
